Assay [1] is described as follows: Body weight loss in C57 lean mice after a single s.c. dose. To be noted: 30 nmol/kg s.c. once. It counts as in vivo, C57BL/6 mice. How it is done:
Method: 10 week old male C57BL/6 mice were injected subcutaneously with protein once on Day1. Body weight was measured daily and five animals were used for each treatment group. Body weight was monitored for each individual animal. % BW loss=100*(BW on Day n-BW on Day 1)/(BW on Day 1). […] The area under the curve for body weight loss (%) from 0 until 8 days (AUC ΔBW 0-8d) was calculated.

In a further assay the test system is db/db mice. The experiment in a line: Non-fasting glucose in db/db mice after a single s.c. dose. It counts as in vivo. How it is done: Method: 10 weeks old male db/db mice were injected subcutaneously with GLP-1 polypeptide conjugate once. […] Delta blood glucose is glucose subtracted by baseline level. […] The area under the curve for delta blood glucose from 0 until 192 hours (AUCΔ8G 0-192 h) was calculated.

Another assay addresses human serum albumin (Homo sapiens, UniProt P02768). The experiment in a line: Human serum albumin binding by surface plasmon resonance (Biacore 8K). The note with it: human serum albumin bound to CM5 chip.
For another assay, the target named is GLP-1 receptor (Homo sapiens, UniProt P43220). The note with it: J. Med. Chem. 2015, 58, 7370-7380; cited from earlier work.
Chain of GLP-1 receptor (P43220 24-463, species assumed): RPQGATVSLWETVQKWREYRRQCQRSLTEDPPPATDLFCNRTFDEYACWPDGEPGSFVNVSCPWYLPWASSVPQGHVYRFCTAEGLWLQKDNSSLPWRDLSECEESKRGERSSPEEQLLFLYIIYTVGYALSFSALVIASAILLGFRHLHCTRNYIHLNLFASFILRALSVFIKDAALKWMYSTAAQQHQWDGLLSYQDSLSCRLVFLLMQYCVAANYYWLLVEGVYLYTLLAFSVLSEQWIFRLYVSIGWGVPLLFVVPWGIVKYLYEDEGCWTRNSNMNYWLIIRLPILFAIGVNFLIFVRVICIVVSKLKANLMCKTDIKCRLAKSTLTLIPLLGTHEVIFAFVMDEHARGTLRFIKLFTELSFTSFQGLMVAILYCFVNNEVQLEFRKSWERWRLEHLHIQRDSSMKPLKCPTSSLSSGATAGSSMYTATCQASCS

Chain of human serum albumin (P02768 25-609): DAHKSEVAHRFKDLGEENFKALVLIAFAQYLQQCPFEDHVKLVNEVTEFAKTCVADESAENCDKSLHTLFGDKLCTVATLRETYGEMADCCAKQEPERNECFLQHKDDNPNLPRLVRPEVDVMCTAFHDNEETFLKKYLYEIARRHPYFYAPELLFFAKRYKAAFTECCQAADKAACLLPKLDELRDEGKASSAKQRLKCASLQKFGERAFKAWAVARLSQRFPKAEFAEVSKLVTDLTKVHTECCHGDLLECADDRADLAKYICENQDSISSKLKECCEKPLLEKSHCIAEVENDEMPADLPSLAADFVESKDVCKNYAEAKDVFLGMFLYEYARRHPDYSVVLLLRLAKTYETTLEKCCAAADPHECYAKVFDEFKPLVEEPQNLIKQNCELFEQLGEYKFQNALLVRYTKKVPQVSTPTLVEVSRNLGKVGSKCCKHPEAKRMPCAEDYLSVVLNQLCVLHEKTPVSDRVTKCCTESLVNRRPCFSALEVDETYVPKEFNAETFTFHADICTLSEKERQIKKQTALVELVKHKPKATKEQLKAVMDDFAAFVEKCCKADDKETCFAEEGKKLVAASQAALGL
Method for human serum albumin: Method: Binding of molecules to serum albumin was characterized by surface plasmon resonance in a Biacore 8K instrument. Serum albumin from different species was covalently bound to CM5 sensor chips surface until 4000 RU was reached. The chip was blocked by 1M ethanolamine with flowrate of 10 μL/min for 420 s. Each molecule sample was diluted and injected at a flow rate of 30 μL/min to allow for binding to chip-bound albumin for 120 s and for dissociation for 300 s. Binding buffer without molecule was sent over the chip at the flow rate of 20 seconds to allow spontaneous dissociation of bound molecule for 30 seconds.

Take Semaglutide [reference compound]: the “AUC ΔBW 0-8 d” value is reported as −9.3 day*% in assay [1] (Study 1 (FIG. 1A)) and −13.2 day*% in assay [1] (Study 2 (FIG. 1B)). For the same substance, the “AUCΔBG 0-192 h” value is -317.0 mmol·h/L in the assay with db/db mice (3 nmol/kg s.c. once), -583.4 mmol·h/L in the assay on db/db mice (10 nmol/kg s.c. once) and -527.1 mmol·h/L with db/db mice (30 nmol/kg s.c. once). The substance also displayed an Rmax at human serum albumin of 55.2 RU. Moreover, at GLP-1 receptor, the “Loss in GLP-1 receptor binding in presence of human serum albumin relative to unconjugated counterpart” value was 939 fold.

Source of the values: patent publication US12383623B2, “Liquid pharmaceutical compositions of polypeptide conjugates and methods of uses thereof” (BEIJING QL BIOPHARMACEUTICAL CO., LTD., priority 2022, dated 2025).
